Source: ChEMBL document CHEMBL6096652, “Design, synthesis and anti-tumor evaluation of novel pyrimidine and quinazoline analogues” (Eur J Med Chem, 2025)
Calls of active or inactive are those of the source. No cut-off for these calls is given here.

How the values were obtained:
A549 = test: Antiproliferative activity against human A549 cells incubated for 48 hrs by MTT assay; type: functional, cell-based; conditions: A549, 48 h
B16-F10 [1] = test: Induction of apoptosis in mouse B16-F10 cells assessed as viable cells at 50 nM incubated for 24 hrs by Annexin V-PE/7-AAD staining based flow cytometry (reference value: 94.5 %); type: functional; conditions: read-out: Activity
B16-F10 [2] = test: Induction of cell cycle arrest in mouse B16-F10 cells assessed as accumulation at G2/M phase at 100 nM incubated for 24 hrs by flow cytometry (reference value: 4.25 %); type: functional
B16-F10 [3] = test: Induction of apoptosis in mouse B16-F10 cells assessed as necrotic cells at 50 nM incubated for 24 hrs by Annexin V-PE/7-AAD staining based flow cytometry (reference value: 0.33 %); type: functional
B16-F10 [4] = test: Induction of apoptosis in mouse B16-F10 cells assessed as late apoptotic cells at 200 nM incubated for 24 hrs by Annexin V-PE/7-AAD staining based flow cytometry (reference value: 4.13 %); type: functional
MCF7 = test: Antiproliferative activity against human MCF7 cells incubated for 48 hrs by MTT assay; type: functional, cell-based; conditions: MCF7, 48 h
B16-F10 [5] = test: Induction of apoptosis in mouse B16-F10 cells assessed as necrotic cells at 200 nM incubated for 24 hrs by Annexin V-PE/7-AAD staining based flow cytometry (reference value: 0.33 %); type: functional
B16-F10 [6] = test: Induction of apoptosis in mouse B16-F10 cells assessed as late apoptotic cells at 100 nM incubated for 24 hrs by Annexin V-PE/7-AAD staining based flow cytometry (reference value: 4.13 %); type: functional
B16-F10 [7] = test: Induction of apoptosis in mouse B16-F10 cells assessed as early apoptotic cells at 200 nM incubated for 24 hrs by Annexin V-PE/7-AAD staining based flow cytometry (reference value: 1.04 %); type: functional
Tubulin (Homo sapiens) [8] = biological target: T1, Tubulin (Homo sapiens) (UniProt P68371+Q9H4B7+P0DPH7+P68366+Q13509+Q71U36+P04350+Q3ZCM7+P07437+P68363+Q9BQE3+Q6PEY2+Q13885+Q9BVA1+Q9BUF5); test: (§1) Inhibition of tubulin polymerization (unknown origin) measured upto 20 mins by absorbance based assay; type: protein-complex assay
Tubulin = test: as §1; type: protein-complex assay, Homo sapiens
B16-F10 [9] = test: Induction of apoptosis in mouse B16-F10 cells assessed as viable cells at 100 nM incubated for 24 hrs by Annexin V-PE/7-AAD staining based flow cytometry (reference value: 94.5 %); type: functional; conditions: read-out: Activity
Tubulin (Homo sapiens) [10] = biological target: T1, Tubulin (Homo sapiens); test: Disruption of microtubule polymerization in human HepG2 cells at 100 nM incubated for 12 hrs by immunofluorescence based analysis; type: cell-based
B16-F10 [11] = test: Antitumor activity against mouse B16-F10 cells implanted in C57BL/6 mouse at 15 mg/kg measured after 10 days relative to control; type: functional; conditions: B16-F10, 240 h, time 10 day, read-out: TGI
B16-F10 [12] = test: Induction of apoptosis in mouse B16-F10 cells assessed as late apoptotic cells at 50 nM incubated for 24 hrs by Annexin V-PE/7-AAD staining based flow cytometry (reference value: 4.13 %); type: functional
B16-F10 [13] = test: Induction of cell cycle arrest in mouse B16-F10 cells assessed as accumulation at G2/M phase at 200 nM incubated for 24 hrs by flow cytometry (reference value: 4.25 %); type: functional
B16-F10 [14] = test: Induction of cell cycle arrest in mouse B16-F10 cells assessed as accumulation at G1 phase at 100 nM incubated for 24 hrs by flow cytometry (reference value: 57.91 %); type: functional
B16-F10 [15] = test: Inhibition of cell migration in mouse B16-F10 cells assessed as recovery of scratch area at 100 nM incubated for 24 hrs by wound healing assay (reference value: 72.97 %); type: functional; set-up: scale not given: the % may be the effect or the level left
B16-F10 [16] = test: Induction of apoptosis in mouse B16-F10 cells assessed as total apoptotic cells at 200 nM incubated for 24 hrs by Annexin V-PE/7-AAD staining based flow cytometry (reference value: 5.17 %); type: functional
HepG2 = test: Antiproliferative activity against human HepG2 cells incubated for 48 hrs by MTT assay; type: functional, cell-based; conditions: HepG2, 48 h
B16-F10 [17] = test: Induction of cell cycle arrest in mouse B16-F10 cells assessed as accumulation at G2/M phase at 50 nM incubated for 24 hrs by flow cytometry (reference value: 4.25 %); type: functional
B16-F10 [18] = test: Induction of cell cycle arrest in mouse B16-F10 cells assessed as accumulation at S phase at 200 nM incubated for 24 hrs by flow cytometry (reference value: 37.84 %); type: functional
B16-F10 [19] = test: Induction of cell cycle arrest in mouse B16-F10 cells assessed as accumulation at G2/M phase incubated for 24 hrs by flow cytometry; type: functional, cell-based
B16-F10 [20] = test: Induction of apoptosis in mouse B16-F10 cells assessed as viable cells at 200 nM incubated for 24 hrs by Annexin V-PE/7-AAD staining based flow cytometry (reference value: 94.5 %); type: functional; conditions: read-out: Activity
B16-F10 [21] = test: Antitumor activity against mouse B16-F10 cells implanted in C57BL/6 mouse assessed as reduction in tumor volume at 15 mg/kg measured after 10 days; type: functional, organism-based; conditions: time 10.0 day
B16-F10 [22] = test: Induction of cell cycle arrest in mouse B16-F10 cells assessed as accumulation at G1 phase at 200 nM incubated for 24 hrs by flow cytometry (reference value: 57.91 %); type: functional
B16-F10 [23] = test: Induction of cell cycle arrest in mouse B16-F10 cells assessed as accumulation at S phase at 50 nM incubated for 24 hrs by flow cytometry (reference value: 37.84 %); type: functional
B16-F10 [24] = test: Induction of apoptosis in mouse B16-F10 cells assessed as early apoptotic cells at 100 nM incubated for 24 hrs by Annexin V-PE/7-AAD staining based flow cytometry (reference value: 1.04 %); type: functional
B16-F10 [25] = test: Inhibition of cell migration in mouse B16-F10 cells assessed as recovery of scratch area at 50 nM incubated for 24 hrs by wound healing assay (reference value: 72.97 %); type: functional; set-up: scale not given: the % may be the effect or the level left
B16-F10 [26] = test: Inhibition of cell migration in mouse B16-F10 cells assessed as recovery of scratch area at 200 nM incubated for 24 hrs by wound healing assay (reference value: 72.97 %); type: functional; set-up: scale not given: the % may be the effect or the level left
B16-F10 [27] = test: Induction of apoptosis in mouse B16-F10 cells assessed as total apoptotic cells at 50 nM incubated for 24 hrs by Annexin V-PE/7-AAD staining based flow cytometry (reference value: 5.17 %); type: functional
[28] = Toxicity in C57BL/6 mouse implanted with mouse B16-F10 cells assessed as body weight change at 15 to 30 mg/kg measured after 10 days; type: organism-based; conditions: in vivo, 240 h, dose 15-30 mg/kg, time 10 day
B16-F10 [29] = test: Antitumor activity against mouse B16-F10 cells implanted in C57BL/6 mouse at 30 mg/kg measured after 10 days relative to control; type: functional; conditions: B16-F10, 240 h, time 10 day, read-out: TGI
B16-F10 [30] = test: Induction of apoptosis in mouse B16-F10 cells assessed as necrotic cells at 100 nM incubated for 24 hrs by Annexin V-PE/7-AAD staining based flow cytometry (reference value: 0.33 %); type: functional
B16-F10 [31] = test: Induction of cell cycle arrest in mouse B16-F10 cells assessed as accumulation at G1 phase at 50 nM incubated for 24 hrs by flow cytometry (reference value: 57.91 %); type: functional
B16-F10 [32] = test: Antiproliferative activity against mouse B16-F10 cells incubated for 48 hrs by MTT assay; type: functional, cell-based; conditions: B16-F10, 48 h
B16-F10 [33] = test: Induction of apoptosis in mouse B16-F10 cells assessed as total apoptotic cells at 100 nM incubated for 24 hrs by Annexin V-PE/7-AAD staining based flow cytometry (reference value: 5.17 %); type: functional
[34] = Toxicity in C57BL/6 mouse implanted with mouse B16-F10 cells assessed as adverse effects at 15 to 30 mg/kg measured after 10 days; type: organism-based; conditions: in vivo, 240 h, dose 15-30 mg/kg, time 10 day
B16-F10 [35] = test: Induction of apoptosis in mouse B16-F10 cells assessed as early apoptotic cells at 50 nM incubated for 24 hrs by Annexin V-PE/7-AAD staining based flow cytometry (reference value: 1.04 %); type: functional
B16-F10 [36] = test: Induction of cell cycle arrest in mouse B16-F10 cells assessed as accumulation at S phase at 100 nM incubated for 24 hrs by flow cytometry (reference value: 37.84 %); type: functional

SMILES: COc1cc(Nc2ccnc(-c3cccc4c3ccn4C)n2)cc(OC)c1OC
- IC50 (A549): 135 nM
- viability at 0.05 µM (B16-F10 [1]): 88.3%
- Activity (B16-F10 [2]): 65.06%
- Activity (B16-F10 [3]): 1.7%
- Activity (B16-F10 [4]): 18.8%
- IC50 (MCF7): 259 nM
- Activity (B16-F10 [5]): 0.36%
- Activity (B16-F10 [6]): 9.91%
- Activity (B16-F10 [7]): 3.4%
- inhibition (Tubulin (Homo sapiens) [8]): Dose-dependent-effect
- IC50 (Tubulin): 22.2 µM
- viability at 0.1 µM (B16-F10 [9]): 86%
- Activity (Tubulin (Homo sapiens) [10]): Active
- inhibition in vivo at 15 mg/kg (B16-F10 [11]): 57.9%
- Activity (B16-F10 [12]): 8.25%
- Activity (B16-F10 [13]): 82.41%
- Activity (B16-F10 [14]): 11.76%
- Activity (B16-F10 [15]): 37.37%
- Activity (B16-F10 [16]): 22.2%
- IC50 (HepG2): 109 nM
- Activity (B16-F10 [17]): 15.61%
- Activity (B16-F10 [18]): 11.67%
- Activity (B16-F10 [19]): Dose-dependent-effect
- viability at 0.2 µM (B16-F10 [20]): 77.4%
- Activity (B16-F10 [21]): Active
- Activity (B16-F10 [22]): 5.91%
- Activity (B16-F10 [23]): 32.53%
- Activity (B16-F10 [24]): 3.58%
- Activity (B16-F10 [25]): 69.89%
- Activity (B16-F10 [26]): 22.38%
- Activity (B16-F10 [27]): 9.96%
- Activity [28]: Non-toxic
- inhibition in vivo at 30 mg/kg (B16-F10 [29]): 79.6%
- Activity (B16-F10 [30]): 0.52%
- Activity (B16-F10 [31]): 51.86%
- IC50 (B16-F10 [32]): 98 nM
- Activity (B16-F10 [33]): 13.49%
- Activity [34]: Non-toxic
- Activity (B16-F10 [35]): 1.71%
- Activity (B16-F10 [36]): 23.18%
